Measurements as given in patent publication US20250051391A1, “PEPTIDE INHIBITORS AND METHODS FOR INHIBITING PROTEIN AGGREGATION IN NEURONS AND NEURODEGENERATIVE DISEASES” (THE GOVERNING COUNCIL OF THE UNIVERSITY OF TORONTO, priority 2021, published 2025).
Ends that are not written are not given here.

Columns and labels:
[1] = system: a-syn oligomers in HEK293 cells; assay: Oligomers screen (split YFP-a-syn protein fragment complementation, FACS); assay type: cell-based, human
Excerpt: To detect a-syn oligomers, a protein fragment complementation assay (PCA) of a-syn oligomerization in HEK293 cells (14) was used. In this assay, human A53T a-syn was fused to either the C- or N-terminal half of yellow fluorescent protein (YFP). No fluorescence is detectable while a-syn exists in monomers but, when a-syn oligomerizes, the two halves of YFP come in close enough proximity to form a functional, spontaneously fluorescent protein. […] By using fluorescence activated cell sorting (FACS), cells expressing Flag-tagged peptides that directly or indirectly interfered with a-syn oligomer formation were isolated and then the peptides were identified from genomic DNA (FIG. 1A). The screens yielded 10 hits (Table 1). The hit with the most reads (i.e., the most abundant) was the same peptide in all screens: IPIQLKA (SEQ ID NO: 1) (PDpep1) (Table 2). […] Lead peptide targets CHMP2B, a member of ESCRT-III
PCR primers that included the Illumina adaptor sequences were used to amplify peptide coding sequences recovered from selection and cell sorting. Results were demultiplexed, and peptide counts were tallied. After demultiplexing, only reads with an average quality Phred score of >30 were selected, and frequencies were calculated. Finally, the reads were then normalized to the total number of peptides read for that sample population, and a scalar factor was applied. In parallel, ˜25 individual colonies were Sanger sequenced to compare to the NGS data.
Lentiviruses were made in a 15 cm dish format by transfecting packaging cells (293T) with a three-plasmid system as previously described. Viral transduction of HEK293T cells, tet-off split luciferase a-syn cells, tet-off parent cells, and SH-SY5Y cells were performed with a multiplicity of infection of 0.3 (MOI=0.3). Infected cells were selected in puromycin-containing medium to eliminate uninfected cells and three aliquots of cells were collected for sampling of the initial (TO) cell population. Cells were treated with MG132 at concentrations of 0 μM, 10 μM, 25 μM or 50 μM. For the cell viability screen, surviving cells were collected and gDNA was extracted for identification of peptide inhibitors of cell toxicity. For the inhibition of a-syn aggregation screen, split YFP-a-syn constructs were transfected following stable expression of the peptides. Cells were sorted based on their GFP fluorescence intensities with a FACSVantage SE cell sorter (BD Bioscience).
Cells were harvested by trypsin treatment and centrifuged at 500×g for 5 minutes. The pellet was resuspended in ice-cold PBS and centrifuged again. The pellet was then resuspended at a concentration of 4×10^6 cells/ml in the sorting buffer, which is PBS containing 100 Kunitz Dnase l/ml, 10 μg/ml propidium iodide (Sigma) and 2% FBS. The sorting solution was also supplemented with either 10 μM forskolin, 100 μM 5,6-Dichlorobenzimidazole riboside (DRB, Sigma), 10 μM forskolin (Sigma) and 100 μM DRB or DMSO, as a control. The cells were then sent through a 40 μm filter to remove large clumps and loaded into either a FACScan Flow Cytometer (BD Bioscience) for cell analysis or a FACSVantage SE cell sorter (BD Bioscience) for cell sorting. The cells with positive propidium iodide staining (i.e., dead cells) were first eliminated from the analysis or sorting pool. For cell sorting, the desired population, either the most or least bright EGFP-positive cells, according to the purpose of the experiments (see Results), was sorted into either 15 ml conical tubes or 96-well plates, which both contained complete DMEM culture media.
Genomic DNA (gDNA) from peptide expressing cells at different time-points was extracted using QIAamp DNA Blood Mini Kit. PCR amplifications of peptides from gDNA in parallel with the lentiviral plasmid library (naïve library) were performed using indexed Illumina PCR primers to incorporate both the Illumina adapter sequences and indexing sequences. […]

[2] = system: C. elegans PDE dopaminergic neurons; assay: C. elegans neurite length assay (A30P a-syn); assay type: in vivo; settings: A30P human a-syn; RFP-tagged peptide version based on the nematode sequence of CHMP2B
Description: C. elegans strains were grown and maintained under standard conditions at 22-23° (4). BZ555 [dat-1p::gfp] was obtained from the C. elegans Genetics Center (CGC; University of Minnesota, St Paul, MN, USA), TWH1 ([dat-1p::a-syn(A30P), ges-1p::DsRed]; [dat-1p::gfp]) was obtained by crossing BZ555 with A30P a-syn transgenic animals (kindly provided by Dr. Takeshi Iwatsubo, University of Tokyo) (5).
The peptide construct (pPD97.78_osm-6p_TagRFP_wpeptide) was obtained by subcloning the following fragments into NheI and SpeI sites of pPD97.78 (A. Fire): NheI-AgeI […] fragment (2.4 kb) obtained by PCR using primer set 5′-[…]-3′ (SEQ ID NO: 44) and 5′-[…]-3′ (SEQ ID NO: 45) and N2 genomic DNA as a template, AgeI-EcoRI TagRFP fragment obtained by PCR using primer set 5′-gttgaccggt[…]-3′ (SEQ ID NO: 46) and 5′-ggcagaattcga[…]-3′ (SEQ ID NO: 47), EcoRI-SmaI peptide ([…] (SEQ ID NO: 48)) fragment digested from CMV_[…]_worm, SmaI-SpeI unc-54 3′-UTR fragment digested from pPD95.75 (Fire vector). […]
Each plasmid (40 ng/μl) was injected with a co-injection marker, sur-5p::mCherry into TWH1. The animals carrying the extrachromosomal arrays were transferred to new plates, and their progenies were analyzed at the adult stage under a widefield microscope (Zeiss AxioObserver). […]

Substance | Reads Ratio [1] | Reads GFP High ([1]; FACS fraction GFP High) | Reads GFP Inter ([1]; FACS fraction GFP Inter) | Reads GFP Neg ([1]; FACS fraction GFP Neg) | neurite shortening of PDE dopaminergic neurons [2]
IPIQLKA [PDpep1, top hit of all screens; maps to CHMP2B residues 203-209] | 1,218.98 | 12 | 2853 | 15556 | 
DEEIERQLKALG [PDpep1.3] |  |  |  |  | partially rescued
